Results reported in patent publication US6646129B2, “Cyanoguanidines as cell proliferation inhibitors” (Leo Pharmaceutical Products Ltd. A/S, priority 1997, dated 2003).

Legend:
Type in all cases: cell-based
[1] = tested on: human non small cell lung cancer (NCI-H460) cell line; experiment: Inhibition of tumour cell proliferation in vitro, [3H]thymidine incorporation, NCI-H460; conditions: NCI-H460 cells, 24 hours with compound, DNA synthesis by [3H]thymidine incorporation
Method: (§1) The inhibition of tumour cell proliferation was studied using different types of human cancer cell lines. The cell lines under investigation were small cell lung carcinoma (NYH), non small cell lung carcinoma (NCl-H460), and breast cancer (MCF-7) using the following general procedure:
(§2) The cells were cultured in vitro for 24 hours in the presence of the compound under investigation. DNA synthesis was measured by incorporation of [^3H]thymidine, and the median inhibitory concentrations (IC50) of the compounds were calculated.

[2] = tested on: human small cell lung carcinoma (NYH) cell line; experiment: Inhibition of tumour cell proliferation in vitro, [3H]thymidine incorporation, NYH; conditions: NYH cells, 24 hours with compound, DNA synthesis by [3H]thymidine incorporation
Method: as §1, §2

[3] = tested on: human breast cancer (MCF-7) cell line; experiment: Inhibition of tumour cell proliferation in vitro, [3H]thymidine incorporation, MCF-7; conditions: MCF-7 cells, 24 hours with compound, DNA synthesis by [3H]thymidine incorporation
Method: as §1, §2

SMILES	IC50 ([1]; Homo sapiens) [nM]	IC50 ([2]; Homo sapiens) [nM]	IC50 ([3]; Homo sapiens, MCF7) [nM]	IC50 [1] [nM]	IC50 [2] [nM]	IC50 [3] [nM]
CC(C)(C)OC(=O)NCCCCCCCCCCCCNC(=Nc1ccncc1)NC#N [Example No. 1, N-(1 2-t-Butoxycarbonylaminododecyl)-N′-cyano-N″-4-pyridylguanidine]	45	0.62	3.6	–	–	–
N#CNC(=NCCCCCCCCCCCOC1CCCCO1)Nc1ccncc1 (stereo not drawn) [Example No. 7, N-Cyano-N′-4-pyridyl-N″-(11-tetrahydropyranyloxyundecanyl)guanidine]	–	–	–	4.6	0.51	4.2
CCP(=O)(CC)OCCCCCCCCCCCNC(=Nc1ccncc1)NC#N [Example No. 8, N-Cyano-N′-(11-diethylphosphinoyloxyundecanyl)-N″-4-pyridylguanidine]	6	0.48	1.7	–	–	–
